Source: ChEMBL document CHEMBL1201862, “PubChem BioAssay data set” (2004)
Activity calls are given as the source filed them.

Experiments:
[1] = control 3'UTR Renilla luciferase suppression, dose response, counter-screen for Shn3 inhibitor project, cell-based, Clone20-Shn3RL, cherry-picked (AID 624133); assay type: functional
[2] = HepG2 cell cytotoxicity, dose response, cytotoxicity control for Shn3 inhibitor project, CellTiter-Glo, cherry-picked (AID 624134); assay type: functional, cell-based
[3] = Shn3 3'UTR reporter inhibitors, dose response, cell-based, Clone20 osteoblasts, firefly luciferase, cherry-picked (AID 624132); assay type: functional;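 also: firefly luciferase luminescence from reporter carrying the Shn3 3'UTR in osteoblasts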
[4] = microbe, parasite or virus in culture; assay type: functional; conditions: Mycobacterium tuberculosis
[5] = HEK293T cytotoxicity, dose response, cytotoxicity control for miR-122 modulator project, cell-based, activator set, cherry-pick (AID 720690); assay type: functional;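 also: HEK293T human cells scored for general mammalian cytotoxicity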
[6] = HepG2 cell cytotoxicity, dose response, cytotoxicity control, ATP luminescence, cherry-pick, activator set 2 (AID 1053143); assay type: functional, cell-based
[7] = target: Induced myeloid leukemia cell differentiation protein Mcl-1 (Homo sapiens, UniProt Q07820); assay type: functional
[8] = target: T1, Carboxy-terminal domain RNA polymerase II polypeptide A small phosphatase 1 (Homo sapiens, UniProt Q9GZU7); experiment: inhibitors of CTDSP1, concentration-response testing, biochemical assay, absorbance-based, actives from ultra-high-throughput screening (AID 540297); assay type: functional
T1 sequence (Q9GZU7 whole entry): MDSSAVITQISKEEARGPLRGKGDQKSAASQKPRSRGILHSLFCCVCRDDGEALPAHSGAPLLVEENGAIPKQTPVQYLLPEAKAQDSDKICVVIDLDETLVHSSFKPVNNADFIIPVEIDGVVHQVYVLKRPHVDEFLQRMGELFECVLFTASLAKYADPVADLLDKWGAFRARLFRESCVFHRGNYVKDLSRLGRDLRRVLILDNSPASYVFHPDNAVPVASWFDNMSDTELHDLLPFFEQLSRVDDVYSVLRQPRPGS

Vero [9] = experiment: cells; assay type: functional, cell-based; conditions: Chlorocebus sabaeus
Vero [10] = experiment: cells; assay type: functional; conditions: Chlorocebus sabaeus
[11] = Luminescence Cell-Based Dose Confirmation HTS to Identify Inhibitors of Platelet Dense Granule Release. [Related pubchem assays: 1663 (Primary HTS), 1678 (Summary of Project)]; assay type: functional
[12] = target: T2, Heat shock factor protein 1 (Mus musculus, UniProt P38532); experiment: inhibition of MG132-induced HSE-luciferase signal, confirmation, cell-based, NIH3T3, luminescence, dose retest (AID 2382); assay type: functional;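 also: NIH3T3 fibroblasts with HSF1-driven luciferase reporter stressed by proteasome inhibitor MG132; luminescence from HSF1-driven luciferase expression after 8 hours of MG132 stress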
T2 sequence (P38532 whole entry): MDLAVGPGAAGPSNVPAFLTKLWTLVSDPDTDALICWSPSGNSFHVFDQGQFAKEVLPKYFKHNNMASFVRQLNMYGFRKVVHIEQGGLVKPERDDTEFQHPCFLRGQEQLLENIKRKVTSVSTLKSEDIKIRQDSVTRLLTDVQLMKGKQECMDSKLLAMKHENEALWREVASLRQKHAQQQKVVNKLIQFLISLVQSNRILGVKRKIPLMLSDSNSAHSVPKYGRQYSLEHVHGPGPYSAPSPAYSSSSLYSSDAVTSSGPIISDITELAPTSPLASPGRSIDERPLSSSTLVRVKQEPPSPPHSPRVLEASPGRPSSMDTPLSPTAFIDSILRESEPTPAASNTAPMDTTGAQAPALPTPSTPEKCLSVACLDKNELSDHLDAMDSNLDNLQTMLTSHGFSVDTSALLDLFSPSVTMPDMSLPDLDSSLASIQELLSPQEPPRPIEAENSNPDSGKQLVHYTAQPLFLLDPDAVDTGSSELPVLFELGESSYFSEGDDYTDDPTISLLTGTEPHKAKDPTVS

[13] = target: Luciferin 4-monooxygenase (Photinus pyralis, UniProt P08659); experiment: firefly luciferase enzyme inhibitors, dose response, biochemical, luminescence (AID 1891)
Leucine aminopeptidase = target: T3, Leucine aminopeptidase (Plasmodium falciparum 3D7, UniProt Q8IL11); experiment: P. falciparum M17LAP inhibitors, primary screen, biochemical, fluorogenic H-Leu-NHMec substrate, 1536-well (AID 1619); assay type: functional
T3 sequence (Q8IL11 whole entry): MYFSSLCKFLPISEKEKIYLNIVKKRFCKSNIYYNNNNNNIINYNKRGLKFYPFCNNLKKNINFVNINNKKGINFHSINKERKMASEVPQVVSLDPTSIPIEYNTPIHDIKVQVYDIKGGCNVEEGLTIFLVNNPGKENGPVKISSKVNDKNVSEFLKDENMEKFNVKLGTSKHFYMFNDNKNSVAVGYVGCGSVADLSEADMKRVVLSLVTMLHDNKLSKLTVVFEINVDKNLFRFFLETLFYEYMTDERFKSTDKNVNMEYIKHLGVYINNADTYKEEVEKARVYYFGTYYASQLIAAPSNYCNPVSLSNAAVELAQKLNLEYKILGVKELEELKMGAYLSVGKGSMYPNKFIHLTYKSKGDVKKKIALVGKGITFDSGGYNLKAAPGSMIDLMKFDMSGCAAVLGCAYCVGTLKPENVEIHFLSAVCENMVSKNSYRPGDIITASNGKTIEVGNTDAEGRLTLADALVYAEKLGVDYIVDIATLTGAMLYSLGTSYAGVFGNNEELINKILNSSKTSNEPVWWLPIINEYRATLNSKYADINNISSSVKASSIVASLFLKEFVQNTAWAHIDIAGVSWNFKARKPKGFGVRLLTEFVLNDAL

cells [14] = assay type: functional, cell-based
cells [15] = assay type: functional, cell-based; remark: listed apart in the source
Cytochrome P450 1A2 = target: T4, Cytochrome P450 1A2 (Homo sapiens, UniProt P05177);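 also: PubChem cytochrome P450 panel assay, CYP1A2 panel member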
T4 sequence (P05177 whole entry): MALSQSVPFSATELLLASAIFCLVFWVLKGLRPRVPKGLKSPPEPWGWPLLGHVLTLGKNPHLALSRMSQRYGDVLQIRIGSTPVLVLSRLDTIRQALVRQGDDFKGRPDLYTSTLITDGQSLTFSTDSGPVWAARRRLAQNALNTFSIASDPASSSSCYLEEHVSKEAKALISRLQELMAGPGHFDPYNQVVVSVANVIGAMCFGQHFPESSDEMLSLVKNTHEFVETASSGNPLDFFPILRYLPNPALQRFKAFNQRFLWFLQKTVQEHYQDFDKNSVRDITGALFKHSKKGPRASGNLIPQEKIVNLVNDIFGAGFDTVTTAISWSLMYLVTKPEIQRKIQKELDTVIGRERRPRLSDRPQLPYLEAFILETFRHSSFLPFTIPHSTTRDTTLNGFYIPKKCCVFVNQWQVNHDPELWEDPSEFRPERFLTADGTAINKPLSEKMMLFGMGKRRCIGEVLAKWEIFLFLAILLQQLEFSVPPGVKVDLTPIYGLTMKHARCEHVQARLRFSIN

Cytochrome P450 2D6 = Cytochrome P450 2D6 (Homo sapiens, UniProt P10635);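 also: CYP2D6 member of a cytochrome P450 panel assay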
Cytochrome P450 2C19 = Cytochrome P450 2C19 (Homo sapiens, UniProt P33261); experiment: Cytochrome panel assay with activity outcomes. Panel member name: p450-cyp2c19 Compounds with AC50 equal or less than 10 uM are considered active; assay type: functional; conditions: read-out: AC50
Cytochrome P450 2C9 = Cytochrome P450 2C9 (Homo sapiens, UniProt P11712)
[16] = inhibitors of HIV Env-driven cell fusion, dose response, cherry-pick (AID 652057); assay type: functional, cell-based
[17] = ZM109 Env clade C HIV-1 fusion inhibitors, dose response, HeLa effector, CEM target cells, luciferase, cherry-pick (AID 652058); assay type: functional, cell-based
[18] = off-target signal loss in HeLa-CEM21 co-culture – HeLa F-luc CTL cells, cherry-picked, counter-screen for HIV-1 Env fusion inhibitor project, dose response (AID 652040); assay type: functional, cell-based;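 also: potency for signal decrease marking cytotoxic or nonspecific inhibition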
[19] = inhibitors of clade B AD8 Env fusion, dose response, cell-based, cherry-pick (AID 652062); assay type: functional;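 also: luciferase signal from cell-cell fusion driven by HIV-1 clade B AD8 Env; potency is for inhibitors of fusion seen as a drop in luminescence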
Genome polyprotein = Genome polyprotein (dengue virus type 2, UniProt P29990); experiment: Dengue-2 NS5 methyltransferase inhibitors, primary screen, biochemical, confirmation dose response (AID 588689); assay type: functional
[20] = target: FAD-linked sulfhydryl oxidase ALR (Homo sapiens, UniProt P55789); experiment: inhibitors of human ALR sulfhydryl oxidase, dose response, biochemical, H2O2 detection, luminescence, cherry-pick (AID 493248)
Fatty acid synthase [21] = target: T5, Fatty acid synthase (Homo sapiens, UniProt P49327); experiment: FAS thioesterase domain inhibitors, dose response, biochemical, kinetic fluorescence intensity (AID 624326); assay type: functional;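 also: rate of fluorescence rise from hydrolysis of a fluorogenic O-methyl fluorescein ester substrate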
Fatty acid synthase [22] = target: T5, Fatty acid synthase; experiment: FAS thioesterase domain inhibitors, dose response, biochemical, endpoint fluorescence intensity, uHTS hits (AID 624327); assay type: functional;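 also: fluorescence from hydrolysis of an O-methyl fluorescein acyl ester substrate by the enzyme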
Protein skinhead-1 = target: T6, Protein skinhead-1 (Caenorhabditis elegans, UniProt P34707); assay type: functional
T6 sequence (P34707 whole entry): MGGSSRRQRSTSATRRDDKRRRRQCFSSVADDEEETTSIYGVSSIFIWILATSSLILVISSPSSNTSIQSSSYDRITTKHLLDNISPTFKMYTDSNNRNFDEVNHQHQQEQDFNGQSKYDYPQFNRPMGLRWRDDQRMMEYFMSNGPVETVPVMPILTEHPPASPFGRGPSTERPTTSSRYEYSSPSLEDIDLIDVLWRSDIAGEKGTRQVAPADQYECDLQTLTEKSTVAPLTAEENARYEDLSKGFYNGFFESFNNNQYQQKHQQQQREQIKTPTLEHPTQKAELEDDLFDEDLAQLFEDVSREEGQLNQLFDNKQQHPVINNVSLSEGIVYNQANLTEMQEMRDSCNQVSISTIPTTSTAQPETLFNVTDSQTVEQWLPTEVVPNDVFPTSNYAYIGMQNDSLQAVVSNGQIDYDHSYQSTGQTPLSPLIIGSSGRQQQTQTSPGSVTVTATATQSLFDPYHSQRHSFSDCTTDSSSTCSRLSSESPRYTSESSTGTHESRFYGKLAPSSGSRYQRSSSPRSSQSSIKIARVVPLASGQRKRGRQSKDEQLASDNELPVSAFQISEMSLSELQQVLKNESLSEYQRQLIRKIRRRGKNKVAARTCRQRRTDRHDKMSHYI

[23] = HepG2 cell cytotoxicity, dose response, cytotoxicity control, plate reader, cherry-pick, antagonist series (AID 743416); assay type: functional, cell-based
[24] = LGR2 antagonists, dose response, cell-based, HEK293, CRE-luciferase reporter, cherry pick, set 2 (AID 743343); assay type: functional;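 also: transfected cells were stimulated with diluted bursicon conditioned medium after compound addition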
[25] = HEK293 cell cytotoxicity, dose response, cytotoxicity control, plate reader, cherry-picked samples (AID 743446); assay type: functional, cell-based
[26] = A549 cell cytotoxicity, dose response, cytotoxicity control, plate reader, cherry-pick, antagonist series (AID 743412); assay type: functional, cell-based
[27] = MC4R antagonists, dose response, counter-screen for LGR2 antagonist project, cell-based, plate reader, cherry pick (AID 743444); assay type: functional;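 also: transfected HEK 293 cells stimulated with alpha-MSH peptide; potency of inhibitors of the alpha-MSH evoked signal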

T5 sequence (P49327 whole entry, the tested form may be a part): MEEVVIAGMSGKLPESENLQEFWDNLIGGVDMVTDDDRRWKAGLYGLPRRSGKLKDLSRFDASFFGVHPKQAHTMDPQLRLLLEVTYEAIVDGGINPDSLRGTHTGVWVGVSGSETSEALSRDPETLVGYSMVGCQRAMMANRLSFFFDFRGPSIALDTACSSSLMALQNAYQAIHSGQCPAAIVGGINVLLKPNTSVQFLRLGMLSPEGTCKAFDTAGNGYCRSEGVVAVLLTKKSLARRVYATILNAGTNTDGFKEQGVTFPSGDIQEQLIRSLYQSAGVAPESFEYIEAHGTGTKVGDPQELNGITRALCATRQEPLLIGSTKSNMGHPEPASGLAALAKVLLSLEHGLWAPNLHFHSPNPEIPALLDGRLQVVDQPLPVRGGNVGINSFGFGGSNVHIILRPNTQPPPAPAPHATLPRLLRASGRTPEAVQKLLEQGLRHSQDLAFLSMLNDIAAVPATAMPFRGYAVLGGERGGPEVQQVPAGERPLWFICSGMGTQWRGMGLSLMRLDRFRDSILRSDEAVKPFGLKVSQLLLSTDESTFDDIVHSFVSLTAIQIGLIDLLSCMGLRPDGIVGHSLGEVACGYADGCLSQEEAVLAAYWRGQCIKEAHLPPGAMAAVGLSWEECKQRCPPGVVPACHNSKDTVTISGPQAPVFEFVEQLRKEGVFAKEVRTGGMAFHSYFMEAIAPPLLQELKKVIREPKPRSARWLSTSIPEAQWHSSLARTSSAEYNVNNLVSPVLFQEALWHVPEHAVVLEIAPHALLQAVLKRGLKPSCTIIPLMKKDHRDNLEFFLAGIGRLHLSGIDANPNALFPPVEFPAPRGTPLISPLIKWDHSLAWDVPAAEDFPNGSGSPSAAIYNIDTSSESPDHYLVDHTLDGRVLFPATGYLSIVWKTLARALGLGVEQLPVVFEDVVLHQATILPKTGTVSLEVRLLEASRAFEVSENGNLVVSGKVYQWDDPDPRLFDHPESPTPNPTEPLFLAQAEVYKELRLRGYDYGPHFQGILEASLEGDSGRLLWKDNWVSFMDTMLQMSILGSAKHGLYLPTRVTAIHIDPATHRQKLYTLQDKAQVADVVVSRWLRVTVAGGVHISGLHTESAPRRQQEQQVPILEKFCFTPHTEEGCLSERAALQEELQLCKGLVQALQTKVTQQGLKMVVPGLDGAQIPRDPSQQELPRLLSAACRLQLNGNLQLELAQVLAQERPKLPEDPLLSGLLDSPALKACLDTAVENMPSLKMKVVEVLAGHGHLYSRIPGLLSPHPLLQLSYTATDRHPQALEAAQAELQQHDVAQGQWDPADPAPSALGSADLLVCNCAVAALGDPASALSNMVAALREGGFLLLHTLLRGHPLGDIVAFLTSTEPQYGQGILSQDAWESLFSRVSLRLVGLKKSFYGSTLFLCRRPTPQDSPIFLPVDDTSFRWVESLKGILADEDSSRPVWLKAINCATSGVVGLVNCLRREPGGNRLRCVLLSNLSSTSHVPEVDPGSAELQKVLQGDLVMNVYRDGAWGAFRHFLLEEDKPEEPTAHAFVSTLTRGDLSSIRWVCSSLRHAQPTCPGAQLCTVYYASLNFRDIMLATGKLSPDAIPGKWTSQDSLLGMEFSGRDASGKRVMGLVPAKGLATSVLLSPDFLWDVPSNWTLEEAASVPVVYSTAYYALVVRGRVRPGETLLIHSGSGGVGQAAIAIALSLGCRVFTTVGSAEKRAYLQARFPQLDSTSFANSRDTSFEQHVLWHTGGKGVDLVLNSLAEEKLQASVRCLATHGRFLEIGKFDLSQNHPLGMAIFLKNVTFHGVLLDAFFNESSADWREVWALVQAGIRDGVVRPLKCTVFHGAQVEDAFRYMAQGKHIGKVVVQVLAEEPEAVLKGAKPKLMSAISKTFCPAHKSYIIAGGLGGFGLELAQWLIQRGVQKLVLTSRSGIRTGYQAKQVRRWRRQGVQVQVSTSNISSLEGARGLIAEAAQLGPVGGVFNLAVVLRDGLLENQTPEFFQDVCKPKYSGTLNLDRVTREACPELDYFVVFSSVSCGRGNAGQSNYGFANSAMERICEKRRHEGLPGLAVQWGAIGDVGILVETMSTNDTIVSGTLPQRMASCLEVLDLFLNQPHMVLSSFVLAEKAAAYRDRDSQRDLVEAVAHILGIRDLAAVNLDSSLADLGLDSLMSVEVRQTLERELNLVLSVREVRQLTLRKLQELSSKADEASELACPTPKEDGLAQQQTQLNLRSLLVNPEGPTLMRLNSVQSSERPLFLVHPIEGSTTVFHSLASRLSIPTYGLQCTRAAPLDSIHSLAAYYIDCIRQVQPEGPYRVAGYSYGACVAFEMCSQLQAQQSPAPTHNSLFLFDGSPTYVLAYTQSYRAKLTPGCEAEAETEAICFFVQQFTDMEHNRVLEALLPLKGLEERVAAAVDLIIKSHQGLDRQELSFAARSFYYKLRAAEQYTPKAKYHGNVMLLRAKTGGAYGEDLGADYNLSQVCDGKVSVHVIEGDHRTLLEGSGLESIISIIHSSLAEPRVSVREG
Sequence of Cytochrome P450 2C9 (P11712 whole entry, the tested form may be a part): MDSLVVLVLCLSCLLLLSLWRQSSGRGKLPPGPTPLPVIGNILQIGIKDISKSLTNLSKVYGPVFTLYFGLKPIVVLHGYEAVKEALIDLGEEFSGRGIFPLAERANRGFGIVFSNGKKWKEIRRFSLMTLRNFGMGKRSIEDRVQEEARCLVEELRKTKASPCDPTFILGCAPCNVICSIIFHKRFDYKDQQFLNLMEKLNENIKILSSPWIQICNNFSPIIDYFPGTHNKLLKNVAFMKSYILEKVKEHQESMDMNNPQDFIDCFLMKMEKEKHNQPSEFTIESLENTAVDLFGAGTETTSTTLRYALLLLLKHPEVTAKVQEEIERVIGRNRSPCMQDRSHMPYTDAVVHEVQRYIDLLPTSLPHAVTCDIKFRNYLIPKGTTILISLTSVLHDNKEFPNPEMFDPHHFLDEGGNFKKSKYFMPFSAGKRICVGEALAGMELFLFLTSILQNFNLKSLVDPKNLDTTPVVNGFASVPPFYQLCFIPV
Sequence of Cytochrome P450 2D6 (P10635 whole entry): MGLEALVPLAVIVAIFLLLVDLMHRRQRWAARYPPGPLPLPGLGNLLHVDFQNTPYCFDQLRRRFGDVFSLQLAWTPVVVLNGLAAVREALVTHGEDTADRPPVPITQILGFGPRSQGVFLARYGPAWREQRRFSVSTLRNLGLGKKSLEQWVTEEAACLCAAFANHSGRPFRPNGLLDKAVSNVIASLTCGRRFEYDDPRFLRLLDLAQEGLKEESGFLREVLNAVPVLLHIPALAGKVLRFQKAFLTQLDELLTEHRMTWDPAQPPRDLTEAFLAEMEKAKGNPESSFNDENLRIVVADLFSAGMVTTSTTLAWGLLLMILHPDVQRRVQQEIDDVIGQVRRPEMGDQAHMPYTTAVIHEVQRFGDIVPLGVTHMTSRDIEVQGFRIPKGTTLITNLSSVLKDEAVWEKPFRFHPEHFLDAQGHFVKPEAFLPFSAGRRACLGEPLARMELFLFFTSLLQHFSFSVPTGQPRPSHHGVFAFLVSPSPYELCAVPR
Sequence of Cytochrome P450 2C19 (P33261 whole entry): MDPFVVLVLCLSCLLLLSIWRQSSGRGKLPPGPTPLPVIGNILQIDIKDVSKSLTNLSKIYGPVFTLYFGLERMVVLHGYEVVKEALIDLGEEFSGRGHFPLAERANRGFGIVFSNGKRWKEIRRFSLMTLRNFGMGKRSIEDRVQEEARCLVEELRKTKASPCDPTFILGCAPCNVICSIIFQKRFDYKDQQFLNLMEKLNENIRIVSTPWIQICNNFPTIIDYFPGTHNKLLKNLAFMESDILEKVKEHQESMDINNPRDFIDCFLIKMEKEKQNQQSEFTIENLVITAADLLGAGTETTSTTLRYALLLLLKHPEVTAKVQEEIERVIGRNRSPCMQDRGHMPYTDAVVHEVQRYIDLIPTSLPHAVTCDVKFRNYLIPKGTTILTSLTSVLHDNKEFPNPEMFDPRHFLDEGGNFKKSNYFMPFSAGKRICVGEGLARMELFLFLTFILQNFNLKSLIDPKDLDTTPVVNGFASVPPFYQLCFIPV
Sequence of Induced myeloid leukemia cell differentiation protein Mcl-1 (Q07820 whole entry, the tested form may be a part): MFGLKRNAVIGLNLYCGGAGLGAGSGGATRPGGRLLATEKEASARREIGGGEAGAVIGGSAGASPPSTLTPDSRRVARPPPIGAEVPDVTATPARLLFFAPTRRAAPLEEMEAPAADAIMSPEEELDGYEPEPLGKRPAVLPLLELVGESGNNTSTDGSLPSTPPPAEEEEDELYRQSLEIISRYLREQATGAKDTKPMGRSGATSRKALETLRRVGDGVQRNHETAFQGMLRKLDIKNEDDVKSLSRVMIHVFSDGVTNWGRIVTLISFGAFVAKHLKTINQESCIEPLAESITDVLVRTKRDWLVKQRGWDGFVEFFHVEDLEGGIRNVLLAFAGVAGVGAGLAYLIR
Sequence of Luciferin 4-monooxygenase (P08659 whole entry): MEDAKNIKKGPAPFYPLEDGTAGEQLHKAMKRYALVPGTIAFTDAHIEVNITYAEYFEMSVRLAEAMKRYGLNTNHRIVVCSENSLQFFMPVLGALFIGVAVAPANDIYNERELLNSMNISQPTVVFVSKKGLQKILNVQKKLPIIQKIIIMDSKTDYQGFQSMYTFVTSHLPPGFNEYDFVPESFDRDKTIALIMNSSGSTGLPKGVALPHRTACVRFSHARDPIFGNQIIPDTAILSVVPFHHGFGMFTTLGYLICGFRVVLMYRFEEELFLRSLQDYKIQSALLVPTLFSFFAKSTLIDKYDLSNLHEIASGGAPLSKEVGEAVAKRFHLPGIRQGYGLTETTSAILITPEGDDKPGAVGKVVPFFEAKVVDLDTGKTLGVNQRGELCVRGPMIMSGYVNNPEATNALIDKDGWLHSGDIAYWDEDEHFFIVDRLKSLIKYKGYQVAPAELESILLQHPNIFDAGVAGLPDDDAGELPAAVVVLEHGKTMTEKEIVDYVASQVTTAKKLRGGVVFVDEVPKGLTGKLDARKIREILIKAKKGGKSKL

SMILES: Oc1cc(Nc2ccccc2)cc2cccnc12
- AC50 [1]: 6.62 µM (active)
- AC50 [2]: 36 µM (active)
- AC50 [3]: 1.79 µM (active)
- CC50 [4]: 7.2 µM (active)

SMILES: Cc1ccccc1-c1ccc([C@@H]2[C@@H](CO)N3CCCCN(C(=O)Nc4ccc(F)cc4)C[C@@H]23)cc1
- AC50 [5]: 31.1 µM (active)

SMILES: COc1cc(NC(=O)c2cccs2)ccc1NC(=O)c1ccco1
- AC50 [6]: 12 µM (active)

SMILES: COc1ccc(C(CC(=O)N2CCCC2)c2c(OC)cc(OC)c3c(-c4ccccc4)cc(=O)oc23)cc1 (stereo not drawn)
- IC50 [7]: 4.62 µM (active)
- IC50 [8]: 9.82 µM (active)

SMILES: Cc1ccc(C(=O)C[n+]2ccccc2C)cc1[N+](=O)[O-]
- IC50 (Vero [9]): 5.84 µM (active)

SMILES: N=c1c2c(ncn1CCCO)Oc1c(ccc3ccccc13)C2c1ccccc1 (stereo not drawn)
- AC50 [6]: 26 µM (active)
- CC50 (Vero [10]): 15.4 µM (active)
- EC50 [11]: > 112 µM (not active)
- EC50 [12]: > 195 µM (not active)
- EC50 [13]: > 112 µM (not active)

SMILES: CN(C)C1=NC[C@H](Cc2ccccc2)N1CCCC1CCCC1
- AC50 [1]: 2.5 µM (active)
- AC50 [2]: > 70 µM (inactive)
- AC50 [3]: 2.63 µM (active)

SMILES: Cc1occc1C(=O)Nc1sc2c(c1C(N)=O)CCCCC2
- IC50 (Leucine aminopeptidase): 54.6 µM (active)

SMILES: O=C(Nc1ncccc1O)c1ccc2c(c1)OCO2
- AC50 [6]: 26 µM (active)
- EC50 (cells [14]): 51.7 µM (active)
- EC50 (cells [15]): 99.2 µM (active)

SMILES: COc1ccccc1NC(=O)Nc1nc(C(N)Cc2ccc(C(F)(F)F)cc2)cs1 (stereo not drawn)
- AC50 [1]: 24 µM (active)
- AC50 [2]: 25.1 µM (active)
- AC50 [3]: 10.3 µM (active)

SMILES: COc1ccccc1/C=C/C=N/N1CCN(Cc2ccc(Cl)cc2)CC1.Cl
- AC50 (Cytochrome P450 1A2): 15.8 µM (inconclusive)
- AC50 (Cytochrome P450 2D6): 8.91 µM (inconclusive)
- AC50 (Cytochrome P450 2C19): 6.31 µM (inconclusive)
- AC50 (Cytochrome P450 2C9): inconclusive

SMILES: COC(=O)c1c(C)oc(C)c1S(=O)(=O)NC(c1ccccc1)c1ccccc1
- AC50 [16]: 5.64 µM (active)
- AC50 [17]: 6.38 µM (active)
- AC50 [18]: 6.55 µM (active)
- AC50 [19]: 6.05 µM (active)

SMILES: O=C(CCN1C(=O)/C(=C/c2ccccc2Cl)SC1=S)Nc1ccccc1C(=O)O
- IC50 (Genome polyprotein): 77.7 µM (active)
- AC50 [20]: 2.46 µM (active)
- IC50 (Fatty acid synthase [21]): 5.37 µM (active)
- IC50 (Fatty acid synthase [22]): 6.5 µM (active)
- IC50 (Protein skinhead-1): > 100 µM (inactive)

SMILES: CC(C)CN(C(=O)C(c1ccccc1)c1ccccc1)c1c(N)n(CC(C)C)c(=O)[nH]c1=O
- AC50 [16]: 1.62 µM (active)
- AC50 [17]: 0.619 µM (active)
- AC50 [18]: 1.72 µM (active)
- AC50 [19]: 1.91 µM (active)

SMILES: CCC1=C(CC2NCCc3ccccc32)CC2c3cc(OC)c(OC)cc3CCN2C1 (stereo not drawn)
- CC50 (Vero [10]): 5.14 µM (active)
- AC50 [23]: 4.16 µM (active)
- AC50 [24]: 6.49 µM (active)
- IC50 (Vero [9]): > 25 µM (active)
- AC50 [25]: 33.6 µM (active)
- AC50 [26]: 2.13 µM (active)
- AC50 [27]: 7.63 µM (active)
